Measurements: patent US20190008864A1, “PHARMACEUTICAL COMPOSITION CONTAINING GPR119 LIGAND AS EFFECTIVE INGREDIENT FOR PREVENTING OR TREATING NON-ALCOHOLIC STEATOHEPATITIS” (PHARMEDIX.CO., LTD., priority 2014, published 2019)

Key:
[1] = tested on: SREBP-1c; assay: SREBP-1C expression in HepG2 under high glucose/insulin with GPR119 ligand plus AMPK or PKA inhibitor; assay type: cell-based, human
Description: (§1) Sodium dodecyl sulfate-polyacrylamide gel electrophoresis (SDS-PAGE) was carried out by means of a gel electrophoresis device (Mighty Small SE 250, Hoefer Scientific Instruments, San Francisco) according to a method by Laemmli (UK, Nature 227, 680-685, 1970). Each of cell lysate fractions was diluted with a buffer solution for sample dilution [63 mM Tris (pH. 6.8), 10% glycerol, 2% SDS, 0.0013% bromophenol blue, and 5% β-mercaptoethanol], and then electrophoresed on a 8% or 10% gel in an electrode buffer solution (1 l of the solution contained 15 g of Tris, 72 g of glycerin, and 5 g of SDS). […] Whether total protein contents in samples are the same is determined using anti-β-actin and anti-LaminA/C antibodies. Changes in protein expression amounts were determined by measuring the intensities of chemiluminescence signals on the blot by means of densitometry. […] Each lane was calculated using AlphaEase™ version 5.5 software and background intensity was removed from the calculated values. […]
An experiment therefor was performed as follows. […] Protein expression change was measured using the western blotting method of the method D.

[2] = tested on: fatty liver model induced by a high-fat diet; assay: Fatty liver model induced by high-fat diet; assay type: in vivo, C57BL/6J mice; settings: animal models fed with a high-fat diet
Source text: In the present invention, a high fat diet (HFD: 60% fat calories, Research diets, D12492, US) was used as an obesity induction diet.
Six-week-old male C57BL/6J mice (Central Lab. Animal Inc., Seoul, Korea) were acclimated to an experimental environment for one week while being fed solid food, and then randomly divided into a control group and an experimental group for a high-fat diet using a randomized block design. The animal groups were fed for 12 weeks, and thus, fatty liver animal models were established. Fatty liver development was determined according to blood biochemical and histochemical analysis methods. The mice were orally fed with the high-fat diet only for six weeks, and in combination with a GPR119 ligand (10 mg/kg) suspended in 40% PEG400 once a day for five days every week. Choline-deficient, amino acid-fixed high-fat diet steatohepatitis models were prepared by feeding six-week-old male C57BL/6J mice (Central Lab. Animal Inc., Seoul) with a diet containing 60 kcal fat and 0.1% methionine for four weeks. After terminating the experiment, experimental animals fasted for 12 hours or more. Subsequently, blood, liver, and adipose tissues in intestines (epididymal fat, kidney-surrounding fat) were collected from the animals that had been anesthetized with diethyl ether and then washed with a 0.1 M phosphate buffered saline (pH 7.4), followed by being weighed. Blood collected from abdominal aortas was centrifuged at 3000 rpm for 20 minutes using SST tubes to separate serum.
A total cholesterol concentration and a total glucose concentration in serum from each of the aforementioned experimental animals raised for 12 weeks were measured as follows. Each of the total cholesterol concentration and the total glucose concentration in serum was measured twice by means of a commercial measurement kit (Bio Clinical Systems). The amount of alanine aminotransferase (ALT) in blood used as a liver function index was measured by means of a commercial analysis kit (Bio Clinical Systems, Korea).
The collected liver tissues were fixed with a 10% neutral formalin solution and then subjected to a common fixation procedure and dehydration process, followed by embedding the same in paraffin. The embedded tissues were sectioned to a thickness of 4 μm and stained with H&E. The stained tissues were observed by means of an optical microscope.
A predetermined amount of each of the liver tissues was homogenized in liquid nitrogen and a cell lysis buffer in a mortar, and then a lysed tissue solution was transferred to a new tube, followed by vortexing. […] A middle layer of the centrifuged solution was collected and then subjected to protein quantification by the Bradford assay. […] Expression changes of FAS and SREBP-1c proteins were measured by western blotting. […]

[3] = tested on: mouse liver tissue and hepatocyte line; assay: Summary statement: mouse liver tissue and hepatocyte line treated with the two GPR119 ligands; assay type: cell-based
[4] = tested on: SREBP-1c protein; assay: SREBP-1c expression after T0901317 treatment, HepG2 (western blot); assay type: cell-based, human; settings: 10 μM T0901317 alone, nine hours, compared to no treatment
Description: (§2) A 6-well plate was inoculated with HepG2 (ATCC, US), as a human hepatocyte line, and cultured until confluence in a DMEM medium containing 1% penicillin-streptomycin (Hyclone, US) and 10% fetal bovine serum (Hyclone, US) in a 5% CO2 incubator at 37° C. The medium containing 10% fetal bovine serum of the hepatocyte line grown to confluence was replaced by a medium not containing FBS. The cell line was additionally cultured for 18 hours and used as a sample for an experiment.
as §1, with “1970).” for “1970). Each of cell lysate fractions was diluted with a buffer solution for sample dilution [63 mM Tris (pH. 6.8), 10% glycerol, 2% SDS, 0.0013% bromophenol blue, and 5% β-mercaptoethanol], and then electrophoresed on a 8% or 10% gel in an electrode buffer solution (1 l of the solution contained 15 g of Tris, 72 g of glycerin, and 5 g of SDS).”

[5] = tested on: SREBP-1c protein; assay: SREBP-1c expression after T0901317 treatment, primary hepatocytes (western blot); assay type: cell-based, mouse; settings: 10 μM T0901317 alone, nine hours, compared to no treatment
Description: Liver cells were collected from male C57BL/6 mice (Central Lab. Animal Inc., Seoul) according to a method by Seglen et al. (Exp Cell Res., 82, pp 391-398, 1973). Each C57BL/6 mouse was anesthetized and then the abdomen thereof was incised. Subsequently, the hepatic portal vein was intubated and a gas mixture of 5% CO2 and 95% O2 was insufflated thereinto. A Ca^2+ and Mg^2+-free Hank's balanced salt solution at 37° C. was flowed into the tube to remove blood in the liver. Subsequently, a 0.1% collagenase type IV (Sigma, US) solution was flowed thereinto. The liver tissue was removed from the body, and then prepared into a hepatocyte suspension. The prepared hepatocyte suspension was centrifuged at 50×g for two minutes. […]
Sodium dodecyl sulfate-polyacrylamide gel electrophoresis (SDS-PAGE) was carried out by means of a gel electrophoresis device (Mighty Small SE 250, Hoefer Scientific Instruments, San Francisco) according to a method by Laemmli (UK, Nature 227, 680-685, 1970). […] Whether total protein contents in samples are the same is determined using anti-β-actin and anti-LaminA/C antibodies. Changes in protein expression amounts were determined by measuring the intensities of chemiluminescence signals on the blot by means of densitometry. […] Each lane was calculated using AlphaEase™ version 5.5 software and background intensity was removed from the calculated values. […]

[6] = tested on: SCD-1 mRNA; assay: SCD-1 mRNA expression after T0901317 treatment, HepG2 (real time PCR); assay type: cell-based, human; settings: 10 μM T0901317 alone
Description: as §2
(§3) 1 ml of a TRIzol solution was added to each of cell samples to lyse the cells. Subsequently, centrifugation was carried out at 4° C. and 12,000×g for 10 minutes. […]
(§4) A supernatant was transferred to a new tube and then isopropanol was added thereto in the same amount as the supernatant. […] The concentration of an extracted RNA sample was measured at wavelengths of 260 nm and 280 nm by means of a UV/VIS spectrum analyzer (Nanodrop, Thermo, US) and cDNAs were synthesized therefrom using an RT kit. […]
(§5) A medium containing the GPR119 ligand (MBX-2982, GSK-1292263A) was added to a human hepatocyte line (HepG2) cultured as in the method C and, 30 minutes later, the cell line was treated with 10 μM T0901317 for nine hours. […] To investigate mRNA expression change in SCD-1 and FAS, RNAs were isolated and cDNAs were synthesized therefrom as in the method E. mRNA expression levels were measured using real time-PCR as in the method F.

[7] = tested on: FAS mRNA; assay: FAS mRNA expression after T0901317 treatment, HepG2 (real time PCR); assay type: cell-based, human; settings: 10 μM T0901317 alone
Description: as §2, §3, §4, §5

## c1cc(-c2cnn3cc(-c4ccc(OCCN5CCCCC5)cc4)cnc23)ccn1 [Compound C]
[1]; 3 μM MBX2982 plus Compound C
  SREBP-1C expression inhibition due to MBX2982 upon AMPK inhibitor treatment: recovered

## CC(C)c1noc(N2CCC(COc3ccc(-c4ccc(S(C)(=O)=O)cc4)nc3)CC2)n1 [GSK1292263, 3-isopropyl-5-(4-(((6-(4-(methylsulfonyl)phenyl)pyridin-3-yl)oxy)methyl)piperidin-1-yl)-1,2,4-oxadiazole]
[2]
  fatty liver development: completely inhibited
[3]
  activity of SREBP-1c: inhibited
  expression of GPR119: increased
  expression of acetyl CoA carboxylase (ACC): inhibited
  expression of fatty acid synthase (FAS): inhibited
  expression of stearoyl-CoA desaturase (SCD): inhibited

## O=S(=O)(NCCNC/C=C/c1ccc(Br)cc1)c1cccc2cnccc12 [H-89]
[1]; 3 μM GPR119 ligand plus H-89
  function of the GPR119 ligand affecting SREBP-1C upon PKA inhibitor treatment: not affected

## O=S(=O)(c1ccccc1)N(CC(F)(F)F)c1ccc(C(O)(C(F)(F)F)C(F)(F)F)cc1 [T0901317, N-(2,2,2-Trifluoroethyl)-N-[4-[2,2,2-trifluoro-1-hydroxy-1-(trifluoromethyl)ethyl]phenyl]benzenesulfonamide]
[4]
  expression level of SREBP-1c: greatly increases
[5]
  expression level of SREBP-1c: greatly increases
[6]
  mRNA expression level of SCD-1: increased
[7]
  mRNA expression level of FAS: increased
